Measured values from publication PMC10895676, “Antiviral Activity of Lipophilic Nucleoside Tetraphosphate Compounds” (Journal of Medicinal Chemistry, 2024).
Like-named read-outs stand apart in the source and are kept apart here.

Columns and labels:
[1] = Hydrolysis in CEM/0 cell extracts; assay type: in vitro ADME; conditions: human
Method: Next, TetraPPPPro-nucleotides 4–9 were incubated in human CD4^+ T-lymphocyte CEM/0 cell extracts to study their stability and identify the hydrolysis products.
CEM cells were grown in RPMI-1640-based cell culture medium to a final density of ∼3 × 10^6 cells/mL. Cells were centrifuged for 10 min at 1250 rpm at 4 °C and washed twice with cold PBS, and the pellet was resuspended at 10^8 cells/mL and sonicated (Hielscher Ultrasound Techn., 100% amplitude, 3·times for 10 s) to destroy cell integrity. Next, the resulting cell suspension was centrifuged at 10,000 rpm to remove cell debris. Finally, the supernatant was divided into aliquots and frozen at −80 °C.
6.0 mM hydrolysis solutions of compounds 4–9 were prepared from 21 μL of 50 mM DMSO stock solutions and 154 μL of DMSO. Two different samples, including 10 μL of water and 10 μL of 6.0 mM hydrolysis solution, were prepared in 2 mL Eppendorf vials. Next, 50 μL of human CEM cell extracts or 50 μL of human citrate plasma were added to the mixture, the reaction was started, and the mixture was incubated at 37 °C for different time periods. The reactions were stopped by the addition of 150 μL of MeOH. The resulting suspension was kept on ice for 5 min, followed by defrosting and centrifugation at 14,000 rpm (Heraeus, Biofuge Pico) for 22 min. The supernatants (80 or 60 μL) were directly injected into HPLC. The calculation of t1/2 was performed analogously to that for the chemical hydrolysis studies.

HIV-1 (HE) = experiment: Anti-HIV replication assay, HIV-1 (HE) in wild-type CEM/0 cells; assay type: cell-based; conditions: Human immunodeficiency virus 1, CCRF-CEM, read-out: HIV-1 (HE) EC50
In short: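 Wild-type CEM/0 CD4+ T-cells (~3 × 10^5 cells/mL) infected with 100 CCID50/mL HIV-1(HE) alongside compound dilutions, incubated 4–5 days at 37 °C. Syncytia (giant cell) formation scored microscopically; EC50 is the concentration inhibiting HIV-induced giant cell formation by 50%.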

[2] = Cytotoxicity, inhibition of CEM/TK– cell proliferation; assay type: cell-based; conditions: human, CEM/TK– cells (CD4+ T-cells), read-out: toxicity CC50
[3] = 37 °C, read-out: CEM/0 cell extracts t1/2 (converted)
[4] = wild-type CEM/0 cells, mean ± SD, n = 2–3

SMILES | half-life at 0.86 mM [1, 3] | EC50 (HIV-1 (HE); [4]) | CC50 [2] | EC50 (HIV-1 (HE)) | half-life at 0.86 mM ([1]; dephosphorylation, read-out: t1/2 in CEM/0 cell extracts)
CCCCCCCCCCCCCCCCCCOP(=O)(O)OP(=O)(O)OP(=O)(O)OP(=O)(O)OC[C@@H]1C=C[C@H](n2cc(C)c(=O)[nH]c2=O)O1 [compound 20, δ-(Alkyl-C18)-d4T4P] | > 8 h | 710 ± 260 nM | > 100000 nM |  | 
CCCCCCCCCCCCCCCCCCP(=O)(O)OP(=O)(O)OP(=O)(O)OP(=O)(O)OC[C@@H]1C=C[C@H](n2cc(C)c(=O)[nH]c2=O)O1 [compound 24, δ-C-(Alkyl-C18)-d4T4P] | > 30 h | 430 ± 370 nM | 40100 nM |  | 
CCCCCCCCCCCCCCCCCCP(=O)(OCCCC)OP(=O)(O)OP(=O)(O)OP(=O)(O)OC[C@@H]1C=C[C@H](n2cc(C)c(=O)[nH]c2=O)O1 (stereo partly shown) [5a, δ-(Alkyl-C4)-δ-C-(alkyl-C18)-d4T4P] | > 20 h |  | 49800 nM | 330 ± 90 nM | 
CCCCCCCCCCCCCCCCCCOP(=O)(OCCCC)OP(=O)(O)OP(=O)(O)OP(=O)(O)OC[C@@H]1C=C[C@H](n2cc(C)c(=O)[nH]c2=O)O1 (stereo partly shown) [4d, δ-(Alkyl-C4; alkyl-C18)-d4T4P] | > 20 h | 110 ± 10 nM | 46800 nM |  | 
Cc1cn([C@H]2C=C[C@@H](COP(=O)(O)OP(=O)(O)OP(=O)(O)OP(=O)(O)O)O2)c(=O)[nH]c1=O [d4T4P, 2′,3′-didehydro-2′,3′-dideoxythymidine-5′-tetraphosphate] | 0.37 h | 420 ± 160 nM | > 100000 nM |  | 0.367 h
